Reference: paper PMC8091166 (Journal of the American Chemical Society, 2017)

Columns and labels:
[1] = Capacity factor on a C18 RP-HPLC column; type: physicochemical; conditions: isocratic 40:60 MeCN:H2O, 0.1% TFA; for MeCN Complex Capacity Factor: MeCN adduct of the complex
HeLa cells [2] = experiment: MTT assay, in vitro anticancer activity in HeLa cells
HeLa cells [3] = experiment: Annexin V/PI assay; type: cell-based
[4] = tested on: intracellular reactive oxygen species (ROS) in HeLa cells; experiment: ROS analysis with DCFDA and flow cytometry; type: cell-based; conditions: DCFDA
[5] = tested on: A549 CisR cisplatin-resistant lung cancer cell line; experiment: Cell viability in A549 CisR cells; type: cell-based
[6] = tested on: A2780CP70 cisplatin-resistant ovarian cancer cell line; experiment: Cell viability in A2780CP70 cells; type: cell-based
[7] = tested on: MRC-5 normal lung fibroblasts; experiment: Cell viability in MRC-5 cells; type: cell-based
[8] = tested on: A2780 ovarian cancer cell line; experiment: Cell viability in A2780 cells; type: cell-based
[9] = tested on: PARP, cleaved PARP, LC3, ERK, p-ERK in HeLa cells; experiment: Western blot analysis of protein expression; type: cell-based
[10] = tested on: KBCP20 cisplatin-resistant cervical cancer cell line; experiment: Cell viability in KBCP20 cells; type: cell-based
[11] = tested on: A549 lung cancer cell line; experiment: Cell viability in A549 cells; type: cell-based
HeLa cells [12] = experiment: Cell viability in the presence of inhibitors; type: cell-based; conditions: 15 μM Z-VAD-FMK
[13] = tested on: H460 CisR cisplatin-resistant lung cancer cell line; experiment: Cell viability in H460 CisR cells; type: cell-based
[14] = tested on: H460 lung cancer cell line; experiment: Cell viability in H460 cells; type: cell-based
HeLa cells [15] = experiment: Cell cycle analysis; type: cell-based
[16] = tested on: KB-3-1 cervical cancer cell line; experiment: Cell viability in KB-3-1 cells; type: cell-based
[17] = tested on: mitochondrial membrane potential (MMP) in HeLa cells; experiment: JC-1 assay; type: cell-based; conditions: 13 at 5 or 10 μM

Molecule: O.[C-]#[O+].[C-]#[O+].[C-]#[O+].[Re+].c1ccc(-c2ccnc3c2ccc2c(-c4ccccc4)ccnc23)cc1 [Complex 14]
- MeCN Complex Capacity Factor [1]: >17
- relative cytotoxicity among the complexes (HeLa cells [2]): substantially diminished relative to that of 13

Molecule: COc1cc([C@@H]2c3cc4c(cc3[C@@H](O[C@@H]3O[C@@H]5CO[C@@H](C)O[C@H]5[C@H](O)[C@H]3O)[C@H]3COC(=O)[C@H]23)OCO4)cc(OC)c1O [etoposide]
- effect of pan-caspase inhibitor Z-VAD-FMK in the annexin V assay (HeLa cells [3]): reduce the apoptotic population

Molecule: COC(=O)c1ccnc(-c2cc(C(=O)OC)ccn2)c1.O.[C-]#[O+].[C-]#[O+].[C-]#[O+].[Re+] [Complex 11]
- MeCN Complex Capacity Factor [1]: 8.2
- Aqua Complex Capacity Factor [1]: 4.2
- relative cytotoxicity among the complexes (HeLa cells [2]): least active

Molecule: OO [Complex H2O2, H2O2]
- increase in the intracellular ROS [4]: greater than 30 fold

Molecule: N.N.[Cl][Pt][Cl] [Cisplatin, cisplatin]
- IC50 ([5]; A549 CisR cells): 12400 ± 8500 nM
- RF (A549), resistance factor ([5]; IC50 in A549 CisR divided by IC50 in A549): 4.1
- IC50 ([6]; A2780CP70 cells): 8200 ± 1800 nM
- RF (A2780), resistance factor ([6]; IC50 in A2780CP70 divided by IC50 in A2780): 36
- IC50 [7]: 430 ± 140 nM
- IC50 [8]: 230 ± 70 nM
- expression levels of PARP, cleaved PARP, LC3, ERK, p-ERK [9]: induced the increase of cleaved PARP levels
- IC50 (HeLa cells [2]; read-out: 50% growth inhibitory concentration (IC50), MTT assay): 3000 ± 1200 nM
- IC50 [10]: 36000 ± 7000 nM
- IC50 [11]: 3000 ± 1800 nM
- change of IC50 in the presence of Z-VAD-FMK (HeLa cells [12]): increased by a factor of four
- IC50 ([13]; H460 CisR cells): 3400 ± 1600 nM
- RF (H460), resistance factor ([13]; IC50 in H460 CisR divided by IC50 in H460): 4.5
- IC50 [14]: 750 ± 430 nM
- cell cycle arrest phase (HeLa cells [15]): inhibits cells predominantly in the S-phase
- IC50 [16]: 1000 ± 300 nM

Molecule: carbonyl cyanide m-chlorophenyl hydrazine [CCCP]
- depolarization of the MMP (JC-1 aggregates) [17]: substantial reduction in the number of JC-1 aggregates
